The values below come from PubChem BioAssay (NCI).

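48-hour exposure; five concentrations; linearly interpolated endpoints. At the TGI there is no net growth.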 *1 amine or outer side, *2 acyl side, *3 side chain or, on linkers, in order; H or OH if unused. Where a SMILES comes first, the peptide text is derived from it. Bridges are numbered along the chain shown (N, C = ends). [ ]: non-standard residue; d: D form. The star is where a group is joined. ξ: configuration not given here. X34 = O=C(C(CCCCNO[*:3])N[*:1])[*:2]; Fmoc = O=C(OCC1c2ccccc2-c2ccccc21)*; ξW = NC(Cc1c[nH]c2ccccc12)C(=O)O; Boc = CC(C)(C)OC(=O)*; ξP = O=C(O)C1CCCN1

Test in all cases: NCI-60 cell line screen, 48 h
For experiment [1], the system named is MDA-MB-435.
In experiment [2] the test system is MCF7 breast.
The subject of experiment [3] is UO-31 renal.
The subject of experiment [4] is MOLT-4 leukemia.
Experiment [5] relates to MDA-MB-231 breast.
Experiment [6] concerns 786-0 renal.
Experiment [7] has as its system HCT-15 colon.
The test system of experiment [8] is SR leukemia.
Experiment [9] concerns A498 renal.
In experiment [10] the test system is OVCAR-3 ovarian.

With `Nc1cc(CO)cc(Nc2nc3ccc(Cl)cc3c3[nH]c4ccccc4c23)c1`, the TGI came to 15.3 µM in [1]; 3.92 µM in experiment [2]; 11.6 µM in experiment [3]; 32.2 µM in experiment [4]; 12 µM in [5]; 6.83 µM in experiment [6]. The values for the TGI in experiment [7] and in [8] were 18.6 µM and 7.33 µM, respectively.
In the case of `COc1ccccc1Nc1nc(N)nc(N)c1N=O`, the TGI in [1], in experiment [2], in experiment [3], in [4], in experiment [9] and in experiment [5] was more than 100 µM throughout. Also, the TGI in experiment [6], in experiment [7] and in experiment [8] was more than 100 µM throughout.
For the compound `O=C(CC(=O)n1nc(-c2ccccc2)c(N=Nc2ccccc2C(=O)O)c1-c1ccccc1)Nc1ccc(Cl)cc1`, the TGI is more than 100 µM in [2]; 47.8 µM in experiment [3]; 27.9 µM in experiment [4]; more than 100 µM in experiment [5]; more than 100 µM in [6]; more than 100 µM in experiment [7]. In experiment [8], this compound had a TGI of 42 µM.
Consider `Oc1ccc(/C=C/c2cc(O)cc(O)c2)cc1`, for which the TGI in experiment [1], in experiment [2], in [3], in experiment [4], in experiment [9] and in experiment [5] was more than 100 µM in each case. Besides, the TGI in [10], in experiment [7] and in experiment [8] was more than 100 µM each time.
In the case of `C=C(C)C12CC(COC(=O)c3ccccc3)C34OC5(OC1C3C1OC1(CO)C(O)C1(O)C(OC(=O)c3ccccc3)C(C)C(C(C)CCCCCCC5O)C14)O2` (configuration not stated), the TGI was more than 79.3 µM in [1]; more than 100 µM in experiment [2]; more than 100 µM in experiment [3]; more than 100 µM in experiment [9]; more than 100 µM in [5]; more than 100 µM in [6]. In addition, the TGI is more than 100 µM in experiment [10], more than 100 µM in experiment [7] and more than 31.6 µM in [8].
As to `COc1cc(-c2cc(=O)c3cc4c(cc3[nH]2)OCO4)cc(OC)c1O`, the TGI in experiment [1], in experiment [2], in experiment [3], in experiment [4], in experiment [5] and in [6] was more than 10 µM in each case. The TGI in experiment [10], in experiment [7] and in experiment [8] was more than 10 µM throughout.
With `COC(=O)CNC(=O)C(Cc1ccccc1)NC(=O)C(CCSC)NC(=O)C(Cc1ccc(O)cc1)NC(=O)OC(C)(C)C` (configuration not stated) (Boc-YMFG-OMe; configuration not given here), the TGI is more than 100 µM in [1]; more than 100 µM in experiment [2]; more than 100 µM in experiment [3]; 38.9 µM in experiment [4]; more than 100 µM in experiment [9]; 52.8 µM in experiment [5]. Also, the TGI in experiment [6] was more than 100 µM; in experiment [10] it was 38.9 µM; in experiment [7] it was more than 100 µM.
As for `O=C1CCC[C@@H]2NC[C@@H](c3ccc4c(c3)OCO4)[C@H]12`, the TGI in [1], in experiment [2], in experiment [3], in experiment [4], in experiment [9] and in [5] was more than 25 µM each time. The TGI in experiment [6], in [7] and in experiment [8] was more than 25 µM each time.
`O=C(O)CN(CCNC(=O)OCC1c2ccccc2-c2ccccc21)CCNC(=O)OCC1c2ccccc2-c2ccccc21`: the TGI was 34.4 µM in experiment [1]; 40.2 µM in [2]; 37.5 µM in [3]; 49.3 µM in experiment [4]; 31.9 µM in [5]; 36 µM in experiment [6]. Besides, the TGI turned out to be 35.6 µM in experiment [10], 70.3 µM in experiment [7] and 50.2 µM in experiment [8].
`NC(=O)CNC(=O)C1CCCN1C(=O)C1CCCCNOC(=O)CC[C@@H](NC(=O)OCC2c3ccccc3-c3ccccc32)C(=O)NC(Cc2c[nH]c3ccccc23)C(=O)N1` (some centres not stated) (Fmoc-[dE][ξW][X34][ξP]G-NH2; ester 1-3): the TGI in experiment [1], in experiment [2], in experiment [3], in [4], in [5] and in experiment [6] was more than 100 µM in each case. The TGI in [10], in experiment [7] and in experiment [8] was more than 100 µM each time.
`Cc1nnc2n1N=C(c1cc(F)c(Cl)cc1Cl)/C(=C/c1ccc(Cl)cc1)S2`: the TGI in experiment [1] is 29.1 µM; in [2], 50.8 µM; in experiment [3], 27.4 µM; in [4], more than 100 µM; in experiment [9], 41.3 µM; in experiment [5], 47.6 µM. For the same compound, the TGI amounted to 36.8 µM in experiment [6], 25.2 µM in experiment [10] and 35.2 µM in [7].
`COc1cc(/C=C2/C(=O)N(C(=O)c3ccccc3O)N=C2C)cc(OC)c1OC`: the TGI in [1] was more than 100 µM; in [2] it was 34.9 µM; in experiment [3], 6.81 µM; in experiment [4], more than 100 µM; in experiment [9] it was 0.7 µM; in experiment [5] it was more than 100 µM. The TGI in experiment [6] is more than 100 µM; in experiment [10] it was 18.7 µM; in experiment [7] it was more than 100 µM.
Consider `COc1cccc(-c2cc(=O)c3ccccc3o2)c1N`, for which the TGI in [1], in experiment [2], in experiment [3], in [4], in experiment [5] and in experiment [6] was more than 100 µM in each case. In addition, the TGI in experiment [10], in [7] and in experiment [8] was more than 100 µM each time.
`COc1ccc(N2C(=O)C3c4[nH]c5ccc(OCc6ccccc6)cc5c4C4CCC(C(C)(C)C)CC4C3C2=O)cc1` (configuration not stated): the TGI is more than 100 µM in experiment [1]; more than 100 µM in experiment [2]; more than 100 µM in experiment [4]; more than 100 µM in experiment [9]; more than 100 µM in [5]; 81.8 µM in experiment [6]. Also, the TGI in experiment [10], in [7] and in [8] was more than 100 µM throughout.
As for `CCCc1cc(=O)c2c(C)c3[nH]c4ccc(Cl)cc4c3c(C)c2[nH]1`, the TGI in experiment [1] is 3.11 µM; in experiment [2], 3.37 µM; in [3], 3.34 µM; in experiment [4] it was more than 100 µM; in experiment [9] it was 2.92 µM; in experiment [5], 3.97 µM. Further, the TGI in [6] came out at 3.08 µM; in experiment [7] it was 3.37 µM; in experiment [8], 4.93 µM.
